Results: patent publication US20230357222A1, “SELECTIVE SMALL MOLECULE DEGRADERS OF CEREBLON” (DANA-FARBER CANCER INSTITUTE, INC., priority 2020, published 2023)

Key:
Type in all cases: cell-based
[1] = target: T1, cereblon (CRBN) (Homo sapiens, UniProt Q96SW2); assay: Proteomic analysis (TMT LC-MS3) of protein abundance in cells; details: MM1.s cells, 50 nM, 6 hours
T1 construct: endogenous in cells; host or cells: MM1.s cells (also HEK293T, MOLT4, SK-N-DZ and Kelly cells for compound 1)
Protocol: MM1.s cells were treated with DMSO or 50 nM of bispecific compound 1 or 6 in biological triplicates for 6 hours and cells harvested by centrifugation. Lysis buffer (8 M Urea, 50 mM NaCl, 50 mM 4-(2hydroxyethyl)-1-piperazineethanesulfonic acid (EPPS) pH 8.5, Protease and Phosphatase inhibitors from Roche®) was added to the cell pellets and homogenized by 20 passes through a 21 gauge (1.25 in. long) needle to achieve a cell lysate with a protein concentration between 1-4 mg mL-1. A micro-BCA assay (Pierce™) was used to determine the final protein concentration in the cell lysate. 200 μg of protein for each sample were reduced and alkylated as described in Donovan et al., Elife 7:e38430 (2018).
Proteins were precipitated using methanol/chloroform. In brief, four volumes of methanol were added to the cell lysate, followed by one volume of chloroform, and finally three volumes of water. […]
Anhydrous ACN was added to each peptide sample to a final concentration of 30% v/v, and labeling was induced with the addition of TMT reagent to each sample at a ratio of 1:4 peptide:TMT label. […] The sample channels were combined at a 1:1:1:1:1:1:1:1:1:1 ratio, desalted using C18 solid phase extraction cartridges (Waters®) and analyzed by LC-MS for channel ratio comparison. Samples were then combined using the adjusted volumes determined in the channel ratio analysis and dried down in a speed vacuum. […]

[2] = target: T1, cereblon (CRBN); assay: CRBN degradation in MM1.s cells, time course experiment, immunoblot; details: 50-nM dose
Protocol: (§1) MM1.S cells were generously provided by James Bradner (Dana-Farber Cancer Institute (DFCI), Boston, MA). MM1.S cells were cultured in Roswell Park Memorial Institute (RPMI)-1640 media containing L-glutamine, supplemented with 10% fetal bovine serum (FBS) and 1% penicillin/streptomycin. Mycoplasma testing was performed on a monthly basis and all lines were negative.
(§2) Cells were washed with ice cold phosphate-buffered saline (PBS) before being lysed with Cell Lysis Buffer (Cell Signaling Technology®) supplemented with protease and phosphatase inhibitor cocktails (Roche®) at 4° C. for 15 minutes. The cell lysate was vortexed before being centrifuged at 14,000×g for 20 min at 4° C. Protein in cell lysate was quantified by bicinchoninic acid (BCA) assay (Pierce™). Primary antibodies used in this study include CDK9 (Cell Signaling Technology®, 2316S), CKlα (Abcam®, ab206652), CRBN (Novus Biologicals®, NBP1-91810), eRF3/GSPT1 (Abcam®, ab49878), IKZF1 (Ikaros) (Cell Signaling Technology®, 5443S), IKZF3 (Aiolos) (Cell Signaling Technology®, 15103S), VHL (Cell Signaling Technology®, 68547S), and vinculin (Abcam®, ab130007). Blot quantification was performed using Image Studio 4.0 software, normalizing to loading controls.
The experimental protocol is set forth above in Example 7.

[3] = target: T1, cereblon (CRBN); assay: CRBN degradation in MM1.s cells, 4-h dose titration, immunoblot; details: 4-h dose titration treatment
Protocol: as §1, §2

T1 sequence (Q96SW2 whole entry): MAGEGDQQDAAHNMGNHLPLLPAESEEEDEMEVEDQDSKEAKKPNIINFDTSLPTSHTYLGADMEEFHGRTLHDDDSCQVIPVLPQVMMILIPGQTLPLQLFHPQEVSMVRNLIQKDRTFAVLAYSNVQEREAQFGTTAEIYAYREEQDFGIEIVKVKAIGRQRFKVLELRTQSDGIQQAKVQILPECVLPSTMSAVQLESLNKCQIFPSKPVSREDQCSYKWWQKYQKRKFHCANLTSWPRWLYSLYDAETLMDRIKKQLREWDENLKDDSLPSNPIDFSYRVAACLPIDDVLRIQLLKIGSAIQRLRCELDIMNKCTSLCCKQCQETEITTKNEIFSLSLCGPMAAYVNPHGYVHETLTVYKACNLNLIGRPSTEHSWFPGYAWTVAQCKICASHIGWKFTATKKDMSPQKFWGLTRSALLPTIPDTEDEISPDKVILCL

| SMILES | proteins significantly degraded by proteomic analysis (selectivity) [1] | earliest time at which CRBN degradation is seen after treatment [2] | CRBN degrader potency and selectivity (in words) [3] | concentration at which virtually complete degradation of CRBN is seen [3] |
| --- | --- | --- | --- | --- |
| Cc1ncsc1-c1ccc([C@H](C)NC(=O)[C@@H]2C[C@@H](O)CN2C(=O)[C@@H](NC(=O)CCCCCCCCCCOc2cccc3c2C(=O)N(C2CCC(=O)NC2=O)C3=O)C(C)(C)C)cc1 (stereo partly drawn) [Compound 6, (2S,4R)-1-((2S)-2-(11-((2-(2,6-Dioxopiperidin-3-Yl)-1,3-Dioxoisoindolin-4-Yl)Oxy)Undecanamido)-3,3-Dimethylbutanoyl)-4-Hydroxy-N-((S)-1-(4-(4-Methylthiazol-5-Yl)Phenyl)Ethyl)Pyrrolidine-2-Carboxamide] | only CRBN was significantly degraded | 1 h | highly potent and selective degraders of CRBN | around 50 nM |
| Cc1ncsc1-c1ccc(CNC(=O)[C@@H]2C[C@@H](O)CN2C(=O)[C@@H](NC(=O)CCCCCCCCCCOc2cccc3c2C(=O)N(C2CCC(=O)NC2=O)C3=O)C(C)(C)C)cc1 (stereo partly drawn) [Compound 1, (2S,4R)-1-((2S)-2-(11-((2-(2,6-dioxopiperidin-3-yl)-1,3-dioxoisoindolin-4-yl)oxy)undecanamido)-3,3-dimethylbutanoyl)-4-hydroxy-N-(4-(4-methylthiazol-5-yl)benzyl)pyrrolidine-2-carboxamide] | only CRBN was significantly degraded | 1 h | highly potent and selective degraders of CRBN | around 50 nM |
